Reference: PMC3262104 (Journal of the American Chemical Society, 2011)
pIC50: −log10 of the molar value.

Tests used:
[1] = tested on: HIV-1LAI; assay: Inhibition of HIV-1 replication, HIV p24 ELISA in infected 12D7 cells; type: cell-based; settings: Human immunodeficiency virus 1, read-out: IC50 inhibition of HIV-1 replication
[2] = molecular target: T1, P-gp (Homo sapiens, UniProt P08183); assay: Inhibition of P-gp-mediated efflux of calcein-AM in 12D7-MDR cells; type: cell-based
[3] = tested on: P-gp; settings: brain; cited from earlier work
[4] = molecular target: T1, P-gp; assay: [125I]IAAP photo-crosslinking competition, crude Sf9 membranes expressing P-gp; type: binding

T1 sequence (P08183 whole entry): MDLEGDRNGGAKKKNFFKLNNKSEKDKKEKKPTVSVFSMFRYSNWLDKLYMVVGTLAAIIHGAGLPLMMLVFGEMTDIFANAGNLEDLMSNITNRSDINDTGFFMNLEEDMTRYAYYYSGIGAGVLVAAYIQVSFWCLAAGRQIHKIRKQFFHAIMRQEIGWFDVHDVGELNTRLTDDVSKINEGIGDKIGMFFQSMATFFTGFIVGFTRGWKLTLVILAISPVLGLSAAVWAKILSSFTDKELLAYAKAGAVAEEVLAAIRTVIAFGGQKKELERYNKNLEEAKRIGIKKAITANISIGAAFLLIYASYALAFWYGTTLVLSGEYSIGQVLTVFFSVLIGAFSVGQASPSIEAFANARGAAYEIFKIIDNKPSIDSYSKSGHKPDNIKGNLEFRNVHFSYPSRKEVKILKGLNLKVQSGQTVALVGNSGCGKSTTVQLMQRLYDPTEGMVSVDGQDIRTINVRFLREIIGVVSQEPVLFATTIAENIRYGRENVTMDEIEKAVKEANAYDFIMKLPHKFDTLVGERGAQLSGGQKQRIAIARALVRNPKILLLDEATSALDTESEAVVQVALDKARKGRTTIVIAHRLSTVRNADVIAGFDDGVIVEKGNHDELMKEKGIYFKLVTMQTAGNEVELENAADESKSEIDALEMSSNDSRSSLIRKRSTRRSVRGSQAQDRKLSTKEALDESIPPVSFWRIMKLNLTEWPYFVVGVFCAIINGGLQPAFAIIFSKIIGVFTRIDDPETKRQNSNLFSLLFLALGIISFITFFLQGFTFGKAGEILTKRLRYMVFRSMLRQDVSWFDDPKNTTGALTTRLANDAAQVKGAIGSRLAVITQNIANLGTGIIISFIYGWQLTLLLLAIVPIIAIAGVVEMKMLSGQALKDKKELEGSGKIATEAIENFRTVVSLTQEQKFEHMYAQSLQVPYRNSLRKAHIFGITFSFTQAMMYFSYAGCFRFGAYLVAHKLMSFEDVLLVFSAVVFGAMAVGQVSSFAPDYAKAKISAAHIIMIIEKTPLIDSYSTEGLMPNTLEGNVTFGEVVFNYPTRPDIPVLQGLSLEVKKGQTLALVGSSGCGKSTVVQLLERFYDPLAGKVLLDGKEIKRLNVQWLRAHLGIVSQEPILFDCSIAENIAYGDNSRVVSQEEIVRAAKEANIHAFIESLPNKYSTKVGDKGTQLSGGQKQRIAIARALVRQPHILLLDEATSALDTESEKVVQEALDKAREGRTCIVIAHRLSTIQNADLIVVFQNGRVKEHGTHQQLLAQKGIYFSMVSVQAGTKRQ

With `Nc1nc(NC2CC2)c2ncn([C@H]3C=C[C@@H](CO)C3)c2n1` [abacavir] the pIC50 [1] was about 6.22, the pIC50 [2] was under 3.30 and the “Inhibition of P-gp mediated efflux of fluorescent substrates” value ([2]; 12D7-MDR cells, at a concentration of 500 µM) was “only minimally effective”. The “Increased levels in the brains of dosed P-gp-null mice versus dosed wild-type mice” value [3] was 20 fold and the pIC50 [4] was under 4.00.
